Laboratory results as given in patent US9637469B2, “Pyridine derivative” (Teijin Pharma Limited, priority 2012, dated 2017).

biological target: T1, human URAT1 (Homo sapiens, UniProt Q96S37); assay: Test for inhibition of uric acid transport using human URAT1-expressing cells;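 also: three stars up to 0.2 µM two stars 0.2-2 µM one star 2-20 µM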; type: cell-based; details: HEK 293 cells expressing human URAT1; 14C-labeled uric acid 25 μM; uptake 37° C. for 5 min
T1 construct: Full-length cDNA of human URAT1 (hURAT1)
T1 sequence (Q96S37 1-553): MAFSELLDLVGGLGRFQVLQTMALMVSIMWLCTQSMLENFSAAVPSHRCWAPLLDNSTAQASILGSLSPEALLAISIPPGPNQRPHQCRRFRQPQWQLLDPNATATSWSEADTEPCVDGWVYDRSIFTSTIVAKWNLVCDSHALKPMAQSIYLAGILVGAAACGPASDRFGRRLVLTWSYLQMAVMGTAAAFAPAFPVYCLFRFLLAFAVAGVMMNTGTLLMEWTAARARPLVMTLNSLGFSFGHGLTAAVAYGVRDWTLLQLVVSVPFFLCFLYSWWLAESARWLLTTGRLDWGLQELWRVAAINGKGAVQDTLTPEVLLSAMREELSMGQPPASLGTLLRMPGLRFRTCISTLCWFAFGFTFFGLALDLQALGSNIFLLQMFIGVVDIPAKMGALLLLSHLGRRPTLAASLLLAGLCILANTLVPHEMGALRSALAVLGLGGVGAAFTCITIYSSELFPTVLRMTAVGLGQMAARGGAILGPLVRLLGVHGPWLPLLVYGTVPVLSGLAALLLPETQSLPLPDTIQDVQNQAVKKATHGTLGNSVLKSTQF
Method in brief: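 HEK293 cells stably transfected with full-length hURAT1, preincubated 10 min at 37 °C in HBSS with NaCl replaced by Na gluconate. Uptake of 25 μM ¹⁴C-uric acid with compound ran 5 min at 37 °C, then scintillation counting. IC50 derived from % of DMSO-control URAT1-specific uptake.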

Compound	Inhibitory Activity (IC50 of uric acid transport inhibition)
Cc1nc(-c2cncc(OC(C)C)c2)n(Cc2cc(Cl)ccc2Cl)c1C(=O)O [Compound A175, 1-(2,5-dichlorobenzyl)-2-(5-isopropoxypyridin-3-yl)-4-methyl-1H-imidazole-5-carboxylic acid]	* *
O=C(O)c1c(-c2cccc(F)c2)nc(-c2cccnc2)n1Cc1cc(Cl)ccc1Cl [Compound A92, 1-(2,5-dichlorobenzyl)-4-(3-fluorophenyl)-2-(pyridin-3-yl)-1H-imidazole-5-carboxylic acid]	* * *
O=C(NS(=O)(=O)C1CC1)c1c(C2CC2)nc(-c2cccnc2)n1Cc1cccc2ccsc12 [Compound A118, 1-(benzo[b]thiophen-7-ylmethyl)-4-cyclopropyl-N-(cyclopropylsulfonyl)-2-(pyridin-3-yl)-1H-imidazole-5-carboxamide]	* *
O=C(O)c1cnc(-c2cncc(Br)c2)n1Cc1cc(Cl)ccc1Cl [Compound A205, 2-(5-bromopyridin-3-yl)-1-(2,5-dichlorobenzyl)-1H-imidazole-5-carboxylic acid]	* * *
O=C(O)c1ccc(-c2cccnc2)n1Cc1cccc2ccsc12 [Compound B20, 1-(benzo[b]thiophen-7-ylmethyl)-2-(pyridin-3-yl)-1H-pyrrole-5-carboxylic acid]	* * *
Cc1nc(-c2cncc(O)c2)n(Cc2cc(Cl)ccc2Cl)c1C(=O)O [Compound A172, 1-(2,5-dichlorobenzyl)-2-(5-hydroxypyridin-3-yl)-4-methyl-1H-imidazole-5-carboxylic acid]	* *
Cc1nc(Oc2cnccc2Cl)n(Cc2cc(Cl)ccc2Cl)c1C(=O)O [Compound A257, 2-((4-chloropyridin-3-yl)oxy)-1-(2,5-dichlorobenzyl)-4-methyl-1H-imidazole-5-carboxylic acid]	* * *
O=C(O)/C=C/c1ccc(-c2cncc(F)c2)n1Cc1cc(Cl)ccc1Cl [Compound B35, (E)-3-(1-(2,5-dichlorobenzyl)-2-(5-fluoropyridin-3-yl)-1H-pyrrol-5-yl)acrylic acid]	* * *
CC(C)c1nc(-c2cccnc2)n(Cc2csc3cccc(C(F)(F)F)c23)c1C(=O)O [Compound A39, 4-isopropyl-2-(pyridin-3-yl)-1-((4-(trifluoromethyl)benzo[b]thiophen-3-yl)methyl)-1H-imidazole-5-carboxylic acid]	* * *
CC(C)(Sc1cnc(-c2cncc(Cl)c2)n1Cc1cc(Cl)ccc1Cl)C(=O)O [Compound A262, 2-((2-(5-chloropyridin-3-yl)-1-(2,5-dichlorobenzyl)-1H-imidazol-5-yl)thio)-2-methylpropanoic acid]	* *
Cc1ccc(C)c(Cn2c(-c3ccncc3)nc(C)c2C(=O)O)c1 [Compound A238, 1-(2,5-dimethylbenzyl)-4-methyl-2-(pyridin-4-yl)-1H-imidazole-5-carboxylic acid]	* *
CCC(O)(CC)c1nc(-c2cccnc2)n(Cc2cc(Cl)ccc2Cl)c1C(=O)O [Compound A109, 1-(2,5-dichlorobenzyl)-4-(3-hydroxypentan-3-yl)-2-(pyridin-3-yl)-1H-imidazole-5-carboxylic acid]	* *
Cc1nc(-c2cncc(F)c2)n(Cc2csc3cccc(Cl)c23)c1C(=O)O [Compound A141, 1-((4-chlorobenzo[b]thiophen-3-yl)methyl)-2-(5-fluoropyridin-3-yl)-4-methyl-1H-imidazole-5-carboxylic acid]	* *
O=C(O)c1c(Cl)nc(-c2cncc(Cl)c2)n1Cc1cc(Cl)ccc1Cl [Compound A220, 4-chloro-2-(5-chloropyridine-3-yl)-1-(2,5-dichlorobenzyl)-1H-imidazole-5-carboxylic acid]	* * *
Cc1nc(-c2cncc(N3CCCC3)c2)n(Cc2cc(Cl)ccc2Cl)c1C(=O)O [Compound A166, 1-(2,5-dichlorobenzyl)-4-methyl-2-(5-(pyrrolidin-1-yl)pyridin-3-yl)-1H-imidazole-5-carboxylic acid]	* * *
O=C(O)c1ccc(-c2cccnc2)n1Cc1cccc2cccc(Br)c12 [Compound B6, 1-((8-bromonaphthalen-1-yl)methyl)-2-(pyridin-3-yl)-1H-pyrrole-5-carboxylic acid]	* * *
O=C(O)c1c(C2CC2)nc(-c2cncc(Cl)c2)n1Cc1cccc2ccccc12 [Compound A145, 2-(5-chloropyridin-3-yl)-4-cyclopropyl-1-(naphthalen-1-ylmethyl)-1H-imidazole-5-carboxylic acid]	* * *

The remaining lines, values ahead:

Inhibitory Activity (IC50 of uric acid transport inhibition)	Compound
* *	CC(C)(Sc1ncc(-c2cncc(Cl)c2)n1Cc1cc(Cl)ccc1Cl)C(=O)O [Compound A266, 2-((5-(5-chloropyridin-3-yl)-1-(2,5-dichlorobenzyl)-1H-imidazol-2-yl)thio)-2-methylpropanoic acid]
* * *	CCN(CC)Cc1nc(-c2cncc(Cl)c2)n(Cc2cc(Cl)ccc2Cl)c1C(=O)O [Compound A193, 2-(5-chloropyridin-3-yl)-1-(2,5-dichlorobenzyl)-4-((diethylamino)methyl)-1H-imidazole-5-carboxylic acid]
* * *	Cc1ccc(Cn2c(-c3cccnc3)nc(C(C)C)c2C(=O)O)c2ccccc12 [Compound A25, 4-isopropyl-1-((4-methylnaphthalen-1-yl)methyl)-2-(pyridin-3-yl)-1H-imidazole-5-carboxylic acid]
* * *	CC(C)(O)c1nc(-c2cccnc2)n(Cc2cc(Cl)ccc2Cl)c1C(=O)O [Compound A108, 1-(2,5-dichlorobenzyl)-4-(2-hydroxypropan-2-yl)-2-(pyridin-3-yl)-1H-imidazole-5-carboxylic acid]
* * *	CC(C)c1nc(-c2cccnc2)n(Cc2csc3cccc(Br)c23)c1C(=O)O [Compound A38, 1-((4-bromobenzo[b]thiophen-3-yl)methyl)-4-isopropyl-2-(pyridin-3-yl)-1H-imidazole-5-carboxylic acid]
* * *	Cc1ccc(Cn2c(-c3cccnc3)nc(C3CC3)c2C(=O)O)c2ccccc12 [Compound A18, 4-cyclopropyl-1-((4-methylnaphthalen-1-yl)methyl)-2-(pyridin-3-yl)-1H-imidazole-5-carboxylic acid]
* *	O=C(O)c1c(C(F)(F)F)nc(-c2cccnc2)n1Cc1cccc2ccsc12 [Compound A84, 1-(benzo[b]thiophen-7-ylmethyl)-2-(pyridin-3-yl)-4-(trifluoromethyl)-1H-imidazole-5-carboxylic acid]
* * *	O=C(O)c1c(Br)nc(-c2cccnc2)n1Cc1cc(Cl)ccc1Cl [Compound A89, 4-bromo-1-(2,5-dichlorobenzyl)-2-(pyridin-3-yl)-1H-imidazole-5-carboxylic acid]
* * *	O=C(O)c1c(CN2CCOCC2)nc(-c2cncc(Cl)c2)n1Cc1cc(Cl)ccc1Cl [Compound A196, 2-(5-chloropyridin-3-yl)-1-(2,5-dichlorobenzyl)-4-(morpholinomethyl)-1H-imidazole-5-carboxylic acid]
* *	O=C(O)c1ccc(-c2cccnc2)n1Cc1cccc2cccnc12 [Compound B19, 2-(pyridin-3-yl)-1-(quinolin-8-ylmethyl)-1H-pyrrole-5-carboxylic acid]
* *	Cc1nc(-c2cccnc2)n(Cc2ccc(Cl)c(Cl)c2)c1C(=O)O [Compound A68, 1-(3,4-dichlorobenzyl)-4-methyl-2-(pyridin-3-yl)-1H-imidazole-5-carboxylic acid]

same assay, conditions: HEK 293 cells expressing human URAT1; 14C-labeled uric acid 25 μM; uptake 37° C. for 5 min; read-out: Inhibitory Activity (IC50 of uric acid transport inhibition)

Compound	IC50 [µM]
Cc1nc(-c2cnc3ccccc3c2)n(Cc2cccc3ccccc23)c1C(=O)O [Compound A66]	2 to 20
C[S+]([O-])c1nc(-c2cccnc2)n(Cc2cc(Cl)ccc2Cl)c1C(=O)O (centres unmarked) [Compound A106]	2 to 20
Cc1nc(-c2cccnc2)n(Cc2csc3ccccc23)c1C(=O)O [Compound A16]	2 to 20

The next lines start with the values.

IC50 [µM]	Compound
2 to 20	O=C(O)c1c(OCCO)nc(-c2cccnc2)n1Cc1cc(Cl)ccc1Cl [Compound A97]
2 to 20	Cc1nc(-c2cccnc2)n(Cc2cccc3ccsc23)c1C(=O)NS(C)(=O)=O [Compound A115]
2 to 20	Cc1nc(-c2cncc(OCCCO)c2)n(Cc2cc(Cl)ccc2Cl)c1C(=O)O [Compound A187]
2 to 20	Cc1nc(-c2cccnc2)n(Cc2cccc(C(F)(F)F)c2)c1C(=O)O [Compound A61]
